# From US20170055529A1, “BROAD SPECTRUM WEED CONTROL IN FLOODED RICE BY IN-WATER APPLICATION OF AUXIN HERBICIDES” (priority 2015, published 2017)
# Legend:
# Format in all cases: in vivo
# [1] = system: CYPDI = Cyperus difformis (small-flower flatsedge); assay: Greenhouse in-water herbicidal activity (large pots); details: for Percent (%) Visual Injury Ratings - 16 DAA, CYPDI / Percent (%) Visual Injury Ratings - 22 DAA, CYPDI: greenhouse large pots
# Procedure: (§1) Weed seeds or nutlets of the desired test plant species were planted in puddled soil (mud) prepared by mixing shredded topsoil and deionized (DI) water in a 1:1 ratio in a standard cement mixer. […] Osmocote® (17:6:10 N:P:K; 0.5 teaspoon) was added to the bottom of a container. The container is a high-density polyethylene (HDPE) round container (4.163 L (1.1 gallon), 15 cm high×20.55 cm diameter; for treatment purposes, the surface area is calculated as 331 cm^2 with 1 hectare equivalent to 10^8 cm^2). The mud mixture (2,750 mL) was added to the container filling it half full. Stakes were placed horizontally in each container to create separate areas for which to plant each different plant species. Water was added on a regular basis to maintain the paddy flood, and supplemental lighting was provided with overhead metal halide 1000-Watt lamps as necessary.
# (§2) Once the plants had reached the proper size (the growth stage of the various species ranged from 2 to 4 leaves), the containers were flooded with city water to a depth of 3 cm submerging the plants 80-100%. The outside of each container was measured and marked at a 3-cm line with a black permanent marker to eliminate water level variability during the trial period. Water was added daily to maintain this water depth. Triclopyr triethylammonium (as Garlon® 3 A, 360 g ae/L); triclopyr butoxyethyl ester (as Garlon® 4, 480 g ae/L); fluroxypyr methylheptyl ester (meptyl or MHE, as Starane® Ultra, 333 g ae/L); fluroxypyr acid (850 grams acid equivalent per kilogram (g ae/kg)); 2,4-dichlorophenoxyacetic acid dimethylammonium (2,4-D DMA, as Weedar® 64 EC, 456 g ae/L); 2,4-dichlorophenoxyacetic acid 2-ethylhexyl ester (2,4-D 2-EHE, as Agri Star®, 456 g ae/L); clopyralid olamine (as Stinger®, 360 g ae/L); and penoxsulam (as Grasp® SC, 240 g ai/L) were used. Each herbicide treatment for each pot was mixed in water (80 mL) and applied directly into the paddy water at rates adjusted to the surface area. The dry formulations were pre-weighed based on the rate of the active ingredient to be applied on a per unit area basis, placed in 30 mL vials, and capped. Granules were spread onto the top of the water in each pot and dispersed throughout the water. Treatments were replicated 3 times.
# (§3) The treated plants and control plants were placed in a greenhouse as described above and water was added as needed to maintain a flood depth of 3 cm. […]
# [2] = system: ECHCG = Echinochloa crus-galli (barnyardgrass); assay: as above; details: 744 h, read-out: Percent (%) Visual Injury Ratings - 31 DAA, ECHCG
# Procedure: as §1, §2, §3
# [3] = system: MOOVA = Monochoria vaginalis (monochoria); assay: as above; details: for Percent (%) Visual Injury Ratings - 16 DAA, MOOVA / Percent (%) Visual Injury Ratings - 22 DAA, MOOVA: greenhouse large pots
# Procedure: as §1, §2, §3
# [4] = system: CYPDI = Cyperus difformis (small-flower flatsedge); assay: Field trial in-water herbicidal efficacy
# Procedure: (§4) Field trials were conducted in rice using standard herbicide small plot research methodology. Plot size was 2 square meters (m^2) using 1.6 meter (m) diameter rings placed into the rice paddy soil with capability for flooding to maintain good rice cultural practices and rice growing conditions. There were 3 replicates per treatment. Rice was Japonica type that was hand-transplanted into the saturated soil in the rings as per normal cultural practices. The transplanted rice crop was grown using normal cultural practices for fertilization, watering, flooding and maintenance to ensure good growth of the crop and the weeds under transplanted rice conditions in Taiwan.
# (§5) Treatments were applied by mixing the treatments with deionized water just prior to water-injection application by hand to multiple sides in the ring plots. For each 2 m^2 plot, 50 mL deionized water was mixed with the appropriate formulated product amounts to treat 2 m^2 to achieve the desired application rates based on unit area of application (hectare). Ring plot water depth was kept at 3 to 7 cm deep before and after water-injection application.
# (§6) The rice and weeds were evaluated at 28 days after application (DAA). Triclopyr triethylammonium (as Garlon® 3 A, 360 g ae/L); fluroxypyr methylheptyl ester (meptyl or MHE, as Starane® Ultra, 333 g ae/L); 2,4-dichlorophenoxyacetic acid dimethylammonium (2,4-D AMINE, 400 g ae/L SL); penoxsulam (as Grasp® SC, 240 g ai/L); and bensulfuron-methyl (as LONDAX® 10% WAY WP) were used.
# (§7) The treated and control plots were rated at 28 days after application. Ratings were based on percent (%) visual weed control, where 0 corresponds to no control and 100 corresponds to complete control.
# [5] = system: ECHCG = Echinochloa crus-galli (barnyardgrass); assay: Field trial in-water herbicidal efficacy
# Procedure: as §4, §5, §6, §7
# [6] = system: LEFCH = Leptochloa chinensis (Chinese sprangletop); assay: Field trial in-water herbicidal efficacy
# Procedure: as §4, §5, §6, §7
# [7] = system: MOOVA = Monochoria vaginalis (monochoria); assay: Field trial in-water herbicidal efficacy
# Procedure: as §4, §5, §6, §7
# [8] = system: SCPJU = Schoenoplectus juncoides (Japanese bulrush); assay: Field trial in-water herbicidal efficacy
# Procedure: as §4, §5, §6, §7
# [9] = Cyperus difformis, 744 h, read-out: Percent (%) Visual Injury Ratings - 31 DAA, CYPDI
# [10] = Pontederia vaginalis, 744 h, read-out: Percent (%) Visual Injury Ratings - 31 DAA, MOOVA
smiles,measurement,setting,value
"O=C(O)COc1ccc(Cl)cc1Cl [2,4-D DMA (Weedar ® 64), dimethylammonium 2-(2,4-dichlorophenoxy)acetate]","Percent (%) Visual Injury Ratings - 16 DAA, CYPDI",[1]; 35 g ae/ha,99%
same,"Percent (%) Visual Injury Ratings - 22 DAA, CYPDI",[1]; 35 g ae/ha,89%
same,"Percent (%) Visual Injury Ratings - 16 DAA, CYPDI",[1]; 70 g ae/ha,100%
same,"Percent (%) Visual Injury Ratings - 22 DAA, CYPDI",[1]; 70 g ae/ha,76%
same,"Percent (%) Visual Injury Ratings - 16 DAA, CYPDI",[1]; 140 g ae/ha,98%
same,"Percent (%) Visual Injury Ratings - 22 DAA, CYPDI",[1]; 140 g ae/ha,92%
same,"Percent (%) Visual Injury Ratings - 16 DAA, CYPDI",[1]; 280 g ae/ha,97%
same,"Percent (%) Visual Injury Ratings - 22 DAA, CYPDI",[1]; 280 g ae/ha,98%
same,pest or weed control at 280 g/ha,[1]; [9],100%
same,pest or weed control at 560 g/ha,[1]; [9],100%
same,pest or weed control at 1120 g/ha,[1]; [9],100%
same,pest or weed control at 280 g/ha,[2],30%
same,pest or weed control at 560 g/ha,[2],38%
same,pest or weed control at 1120 g/ha,[2],65%
same,"Percent (%) Visual Injury Ratings - 16 DAA, MOOVA",[3]; 35 g ae/ha,98%
same,"Percent (%) Visual Injury Ratings - 22 DAA, MOOVA",[3]; 35 g ae/ha,84%
same,"Percent (%) Visual Injury Ratings - 16 DAA, MOOVA",[3]; 70 g ae/ha,90%
same,"Percent (%) Visual Injury Ratings - 22 DAA, MOOVA",[3]; 70 g ae/ha,72%
same,"Percent (%) Visual Injury Ratings - 16 DAA, MOOVA",[3]; 140 g ae/ha,87%
same,"Percent (%) Visual Injury Ratings - 22 DAA, MOOVA",[3]; 140 g ae/ha,88%
same,"Percent (%) Visual Injury Ratings - 16 DAA, MOOVA",[3]; 280 g ae/ha,89%
same,"Percent (%) Visual Injury Ratings - 22 DAA, MOOVA",[3]; 280 g ae/ha,98%
same,pest or weed control at 280 g/ha,[3]; [10],100%
same,pest or weed control at 560 g/ha,[3]; [10],100%
same,pest or weed control at 1120 g/ha,[3]; [10],100%
same,"Percent (%) Visual Injury Ratings - 28 DAA, CYPDI",[4]; 140 g ae/ha in-water 10 DAT,0.0%
same,"Percent (%) Visual Injury Ratings - 28 DAA, CYPDI",[4]; 280 g ae/ha in-water 10 DAT,94.3%
same,"Percent (%) Visual Injury Ratings - 28 DAA, CYPDI",[4]; 560 g ae/ha in-water 10 DAT,100.0%
same,"Percent (%) Visual Injury Ratings - 28 DAA, ECHCG",[5]; 140 g ae/ha in-water 10 DAT,0.0%
same,"Percent (%) Visual Injury Ratings - 28 DAA, ECHCG",[5]; 280 g ae/ha in-water 10 DAT,0.0%
same,"Percent (%) Visual Injury Ratings - 28 DAA, ECHCG",[5]; 560 g ae/ha in-water 10 DAT,0.0%
same,"Percent (%) Visual Injury Ratings - 28 DAA, LEFCH",[6]; 140 g ae/ha in-water 10 DAT,0.0%
same,"Percent (%) Visual Injury Ratings - 28 DAA, LEFCH",[6]; 280 g ae/ha in-water 10 DAT,0.0%
same,"Percent (%) Visual Injury Ratings - 28 DAA, LEFCH",[6]; 560 g ae/ha in-water 10 DAT,0.0%
same,"Percent (%) Visual Injury Ratings - 28 DAA, MOOVA",[7]; 140 g ae/ha in-water 10 DAT,0.0%
same,"Percent (%) Visual Injury Ratings - 28 DAA, MOOVA",[7]; 280 g ae/ha in-water 10 DAT,6.7%
same,"Percent (%) Visual Injury Ratings - 28 DAA, MOOVA",[7]; 560 g ae/ha in-water 10 DAT,93.3%
same,"Percent (%) Visual Injury Ratings - 28 DAA, SCPJU",[8]; 140 g ae/ha in-water 10 DAT,10.0%
same,"Percent (%) Visual Injury Ratings - 28 DAA, SCPJU",[8]; 280 g ae/ha in-water 10 DAT,90.0%
same,"Percent (%) Visual Injury Ratings - 28 DAA, SCPJU",[8]; 560 g ae/ha in-water 10 DAT,100.0%
